Values of other authors as cited in US20200390702A1, “LIPOSOMAL TAXANES FOR TREATMENT OF SCLC” (Plus Therapeutics, Inc., priority 2017, published 2020).
Read-outs that look alike come from different tables or passages of the source.

Tested on: SCLC
Details: intravenous

CC[C@@]1(O)C(=O)OCc2c1cc1n(c2=O)Cc2cc3c(CN(C)C)c(O)ccc3nc2-1 [Topotecan]
response rate (chemotherapy-refractory relapsed cases): 4.0% | response rate (chemotherapy-sensitive relapsed cases): 20.4%
